According to ChEMBL document CHEMBL2380227, “Ginkgetin induces apoptosis via activation of caspase and inhibition of survival genes in PC-3 prostate cancer cells” (Bioorg Med Chem Lett, 2013):
Activity calls are given as the source filed them.

Tests used:
PC-3 [1] = experiment: Induction of apoptosis in human PC3 cells assessed as increase in PARP cleavage at 30 uM after 24 hrs by Western blotting in presence of Z-DEVD-FMK; format: functional, cell-based
PC-3 [2] = experiment: Induction of apoptosis in human PC3 cells assessed as increase in caspase-3 cleavage at 30 uM after 24 hrs by Western blotting in presence of Z-DEVD-FMK; format: functional, cell-based
PC-3 [3] = experiment: Cell cycle arrest in human PC3 cells assessed as sub-G1 accumulation at 30 uM after 24 hrs by propidium iodide staining-based flow cytometry in presence of Z-DEVD-FMK; format: functional
PC-3 [4] = experiment: Induction of apoptosis in human PC3 cells assessed as supression of Cyclin-D1 mRNA expression at 15 to 30 uM after 24 hrs by RT-PCR analysis; format: functional, cell-based
PC-3 [5] = experiment: Induction of apoptosis in human PC3 cells assessed as supression of survivin mRNA expression at 15 to 30 uM after 24 hrs by RT-PCR analysis; format: functional, cell-based
PC-3 [6] = experiment: Induction of apoptosis in human PC3 cells assessed as supression of Bcl-XL mRNA expression at 15 to 30 uM after 24 hrs by RT-PCR analysis; format: functional, cell-based
PC-3 [7] = experiment: Induction of apoptosis in human PC3 cells assessed as supression of Bcl-2 mRNA expression at 15 to 30 uM after 24 hrs by RT-PCR analysis; format: functional, cell-based
PC-3 [8] = experiment: Induction of apoptosis in human PC3 cells assessed as supression of Cyclin-D1 expression at 15 to 30 uM after 24 hrs by Western blotting; format: functional, cell-based
PC-3 [9] = experiment: Induction of apoptosis in human PC3 cells assessed as supression of survivin expression at 15 to 30 uM after 24 hrs by Western blotting; format: functional, cell-based
PC-3 [10] = experiment: Induction of apoptosis in human PC3 cells assessed as supression of Bcl-XL expression at 15 to 30 uM after 24 hrs by Western blotting; format: functional, cell-based
PC-3 [11] = experiment: Induction of apoptosis in human PC3 cells assessed as supression of Bcl-2 expression at 15 to 30 uM after 24 hrs by Western blotting; format: functional, cell-based
PC-3 [12] = experiment: Induction of apoptosis in human PC3 cells assessed as increase in caspase-3 cleavage at 15 to 30 uM after 24 hrs by immunofluorescence assay relative to control; format: functional, cell-based
PC-3 [13] = experiment: Induction of apoptosis in human PC3 cells assessed as increase in PARP cleavage at 15 to 30 uM after 24 hrs by Western blotting; format: functional, cell-based
PC-3 [14] = experiment: Induction of apoptosis in human PC3 cells assessed as increase in caspase-3 cleavage at 15 to 30 uM after 24 hrs by Western blotting; format: functional, cell-based
PC-3 [15] = experiment: Cell cycle arrest in human PC3 cells assessed as sub-G1 accumulation after 24 hrs by propidium iodide staining-based flow cytometry; format: functional
PC-3 [16] = experiment: Induction of apoptosis in human PC3 cells assessed as cell shrinkage at 15 to 30 uM after 24 hrs by inverted microscopy; format: functional, cell-based
PC-3 [17] = experiment: Induction of apoptosis in human PC3 cells assessed as apoptotic bodies at 15 to 30 uM after 24 hrs by inverted microscopy; format: functional, cell-based
PC-3 [18] = experiment: Cytotoxicity against human PC3 cells after 24 hrs by MTT assay; format: functional, cell-based

Measured: Activity

COc1cc(O)c2c(=O)cc(-c3ccc(OC)c(-c4c(O)cc(O)c5c(=O)cc(-c6ccc(O)cc6)oc45)c3)oc2c1
active: PC-3 [1] | PC-3 [2] | PC-3 [3] | PC-3 [4] | PC-3 [5] | PC-3 [6] | PC-3 [7] | PC-3 [8] | PC-3 [9] | PC-3 [10] | PC-3 [11] | PC-3 [12] | PC-3 [13] | PC-3 [14] | PC-3 [15] Dose-dependent effect | PC-3 [16] | PC-3 [17] | PC-3 [18] Dose-dependent effect
